The values that follow come from US4252956A, “Derivatives of 1,4-dihydropyridine-3-carbothiol acids” (priority 1979, dated 1981).

Structures are written as SMILES. Like-named read-outs stand apart in the source and are kept apart here.

One data set relates to coronary blood flow. Put plainly: recording the volume rate of coronary blood flow in experiments on narcotized cats (coronarodilating activity). The following applies: for ED (30-50%): Felis catus, iv, read-out: Dose increasing the coronary blood flow by 30-50%; for Duration of the effect: Table, at the dose increasing the coronary blood flow; for coronarodilating activity: narcotized cats. It counts as in vivo.

For a further data set, the system named is arterial pressure. Put plainly: hypotensive effect (arterial pressure, heart activity). It counts as in vivo. Conditions: for ED30: read-out: ED30 of the hypotensive effect.
The subject of the next data set is white mice. Put plainly: in vivo.
A further data set in a line: in vivo. The following applies: mouse, in vivo, ip; white mice, intraperitoneal; read-out: LD50 for white mice upon intraperitoneal administration.
Data set [1] concerns coronarodilating activity. The following applies: in vivo; cited from earlier work.
Where [2] appears, read: increase of coronary blood flow by 30-50%.

Description for arterial pressure: (§1) Tests of the compounds according to the present invention were performed in comparison with the prior art coronarodilating agents; carbocromene and ditrimine and with the prior art spasmolytic preparation-papaverine having a myotropic effect.
Description for coronary blood flow: as §1

In the case of `COc1cc(C(=O)OCCCN(C)CCN(C)CCCOC(=O)c2cc(OC)c(OC)c(OC)c2)cc(OC)c1OC` [Ditrimine, reference compound], in the data set with coronary blood flow (setting [2]), the “Dose increasing the coronary blood flow by 30-50%” value was found to be 0.5 mg/kg. The “ED30 of the hypotensive effect” value in the data set on arterial pressure (in vivo) is 1.0 mg/kg. In the data set on white mice, the “LD50 for white mice upon intraperitoneal administration” value was 180 (149-218) mg/kg.
Regarding `CCSC(=O)C1=C(C)NC(C)=C(C(=O)SCC)C1` [I, Di-S-ethyl ester of 2,6-dimethyl-1,4-dihydropyridine-3,5-dicarbothiol acid], the ED (30-50%) with coronary blood flow (setting [2]) was 1 mg/kg. In addition, the “Duration of the effect” value in the data set with coronary blood flow lay within 60 to 90 min. The ED30 in the data set with arterial pressure came out at 1.8 mg/kg. Also, the LD50 in the data set “in vivo” is above 4000 mg/kg.
As for `CCSC(=O)C1=C(C)NC(C)=C(C(=O)SCC)C1c1cccnc1` [II, Di-S-ethyl ester of 2,6-dimethyl-4-m-pyridyl-1,4-dihydropyridine-3,5-dicarbothiol acid], the ED (30-50%) in the data set on coronary blood flow (setting [2]) is 0.5 mg/kg. In addition, in the data set with coronary blood flow, the “Duration of the effect” value was above 120 min and the “coronarodilating activity” value is “most active”. Also, in the data set with arterial pressure, the ED30 came to 0.56 mg/kg.
With `CCSC(=O)C1=C(C)NC2=C(C(=O)c3ccccc32)C1c1ccccc1` (centres unmarked) [V, 2-methyl-3-ethylthiocarbonyl-4-phenyl-5-oxo-1,4-dihydroindeno-(1,2-b)-pyridine], the ED (30-50%) in the data set on coronary blood flow (setting [2]) came out at 3 mg/kg. In addition, the ED30 with arterial pressure is 3 mg/kg.
With `CCSC(=O)C1=C(C)NC2=C(C(=O)c3ccccc32)C1c1ccccc1O` (centres unmarked) [VIII, 2-methyl-3-ethylthiocarbonyl-4-o-hydroxyphenyl-5-oxo-1,4-dihydroindeno-(1,2-b)pyridine], the ED (30-50%) in the data set on coronary blood flow (setting [2]) was found to be 3 mg/kg. Besides, the ED30 with arterial pressure is 5 mg/kg.
For `CCOC(=O)C1=C(C)NC(C)=C(C(=O)SCc2ccccc2)C1c1ccccc1` (centres unmarked) [III, 3-S-benzyl-5-ethyl ester of 4-phenyl-2,6-dimethyl-1,4-dihydropyridine-3-carbothiol-5-carboxylic acid], the ED (30-50%) in the data set on coronary blood flow (setting [2]) was determined as 0.5 mg/kg. In the data set on coronary blood flow, the “Duration of the effect” value was found to be 150 min and the “coronarodilating activity” value is “most active”. Moreover, in the data set on arterial pressure, the ED30 came to 1.65 mg/kg.
For the molecule `CCSC(=O)C1=C(C)NC2=C(C(=O)c3ccccc32)C1c1ccccc1[N+](=O)[O-]` (centres unmarked) [X, 2-methyl-3-ethylthiocarbonyl-4-o-nitrophenyl-5-oxo-1,4-dihydroindeno-(1,2-b)-pyridine], the ED (30-50%) in the data set with coronary blood flow (setting [2]) was 3 mg/kg. The LD50 in “in vivo” is above 2000 mg/kg.
For the molecule `COC(=O)C1=C(C)NC(C)=C(C(=O)OC)C1c1ccccc1[N+](=O)[O-]` [2,6-dimethyl-3,5-dicarbometh-oxy-4-o-nitrophenyl-1,4-dihydropyridine], in data set [1], the “coronarodilating activity (prior art)” value is reported as “pronounced coronarodilating activity”.
`CC1=C(C(=O)SCc2ccccc2)C(c2ccccc2O)C2=C(N1)c1ccccc1C2=O` (centres unmarked) [VII, 2-methyl-3-benzylthiocarbonyl-4-o-hydroxyphenyl-5-oxo-1,4-dihydroindeno-(1,2-b)-pyridine]: in the data set on coronary blood flow, the ED (30-50%) turned out to be 0.5 mg/kg and the “coronarodilating activity” value is “most active”. Further, the ED30 with arterial pressure was found to be 1 mg/kg.
`CCOC(=O)COc1ccc2c(C)c(CCN(CC)CC)c(=O)oc2c1` [Carbocromene, reference compound]: the ED (30-50%) in the data set on coronary blood flow (setting [2]) came to 0.5 mg/kg.
Regarding `COc1ccc(Cc2nccc3cc(OC)c(OC)cc23)cc1OC` [Papaverine, reference compound], in the data set on coronary blood flow, the ED (30-50%) was determined as 1 mg/kg and the “Duration of the effect” value was in the range of 10 to 20 min. The ED30 in the data set on arterial pressure was 0.27 mg/kg. For the same molecule, the LD50 in “in vivo” worked out at 91 mg/kg.
In the case of `CCSC(=O)C1=C(C)NC2=C(C(=O)c3ccccc32)C1c1ccc([N+](=O)[O-])cc1` (centres unmarked) [IX, 2-methyl-3-ethyl-thiocarbonyl-4-p-nitrophenyl-5-oxo-1,4-dihydroindeno-(1,2-b)-pyridine], in the data set with coronary blood flow (setting [2]), the ED (30-50%) was 3 mg/kg. Further, the ED30 with arterial pressure stood at 1 mg/kg.
Take `CC1=C(C(=O)SCc2ccccc2)C(c2ccccc2)C2=C(N1)c1ccccc1C2=O` (centres unmarked) [VI, 2-methyl-3-benzylthiocarbonyl-4-phenyl-5-oxo-1,4-dihydroindeno-(1,2-b)-pyridine]: in the data set on coronary blood flow, the ED (30-50%) stood at 0.3 mg/kg and the “coronarodilating activity” value is recorded as “most active”. The ED30 in the data set with arterial pressure stood at 1 mg/kg.
On to `CCOC(=O)C1=C(C)NC(C)=C(C(=O)SCc2ccccc2)C1C` (centres unmarked) [IV, 3-S-benzyl-5-ethyl ester of 2,4,6-trimethyl-1,4-dihydropyridine-3-carbothiol-5-carboxylic acid], for which the ED (30-50%) in the data set with coronary blood flow (setting [2]) lay within 2 to 4 mg/kg. In addition, the “Duration of the effect” value in the data set on coronary blood flow was 30 to 60 min. In addition, the ED30 with arterial pressure was determined as 3.45 mg/kg.
